In PubChem BioAssay (NCI):
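All cell lines were grown in 96-well plates and treated with compound for 48 hours. TGI marks complete inhibition of growth.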

Assays:
Test in all cases: NCI anticancer screen, dose series, 48 h
K-562 leukemia = system: K-562 leukemia
M14 melanoma = system: M14 melanoma
SF-295 CNS = system: SF-295 CNS
KM12 colon = system: KM12 colon
CAKI-1 renal = system: CAKI-1 renal
EKVX NSCLC = system: EKVX NSCLC
SK-MEL-2 melanoma = system: SK-MEL-2 melanoma
NCI/ADR-RES ovarian = system: NCI/ADR-RES ovarian
A549 NSCLC = system: A549 NSCLC
OVCAR-5 ovarian = system: OVCAR-5 ovarian
MALME-3M melanoma = system: MALME-3M melanoma
786-0 renal = system: 786-0 renal
HOP-62 NSCLC = system: HOP-62 NSCLC
NCI-H460 lung = system: NCI-H460 lung
SF-539 CNS = system: SF-539 CNS
T-47D breast = system: T-47D breast
CCRF-CEM leukemia = system: CCRF-CEM leukemia
UACC-62 melanoma = system: UACC-62 melanoma
SNB-19 CNS = system: SNB-19 CNS
MDA-N = system: MDA-N
U251 CNS = system: U251 CNS
HS 578T breast = system: HS 578T breast
SW-620 colon = system: SW-620 colon
OVCAR-8 ovarian = system: OVCAR-8 ovarian
SK-MEL-28 melanoma = system: SK-MEL-28 melanoma
MOLT-4 leukemia = system: MOLT-4 leukemia
NCI-H522 lung = system: NCI-H522 lung
TK-10 renal = system: TK-10 renal
NCI-H23 lung = system: NCI-H23 lung
OVCAR-4 ovarian = system: OVCAR-4 ovarian
PC-3 prostate = system: PC-3 prostate
COLO 205 colon = system: COLO 205 colon
HCC-2998 colon = system: HCC-2998 colon
UO-31 renal = system: UO-31 renal
SK-OV-3 ovarian = system: SK-OV-3 ovarian
RXF 393 renal = system: RXF 393 renal
DU-145 prostate = system: DU-145 prostate
SR leukemia = system: SR leukemia
BT-549 breast = system: BT-549 breast
HL-60(TB) leukemia = system: HL-60(TB) leukemia
SK-MEL-5 melanoma = system: SK-MEL-5 melanoma
HT29 colon = system: HT29 colon
HCT-15 colon = system: HCT-15 colon
HCT-116 colon = system: HCT-116 colon
MCF7 breast = system: MCF7 breast
NCI-H226 lung = system: NCI-H226 lung
SNB-75 CNS = system: SNB-75 CNS
LOX IMVI melanoma = system: LOX IMVI melanoma
IGROV1 ovarian = system: IGROV1 ovarian
ACHN renal = system: ACHN renal
MDA-MB-231 breast = system: MDA-MB-231 breast
SN12C renal = system: SN12C renal
UACC-257 melanoma = system: UACC-257 melanoma
SF-268 CNS = system: SF-268 CNS
OVCAR-3 ovarian = system: OVCAR-3 ovarian
MDA-MB-435 = system: MDA-MB-435
RPMI-8226 leukemia = system: RPMI-8226 leukemia
HOP-92 NSCLC = system: HOP-92 NSCLC
A498 renal = system: A498 renal

## COc1ccc(OC)c(C(=O)c2cccc(C(=O)c3cc(OC)ccc3OC)n2)c1
K-562 leukemia
  TGI: > 100 µM
M14 melanoma
  TGI: > 100 µM
SF-295 CNS
  TGI: 74.5 µM
KM12 colon
  TGI: > 100 µM
CAKI-1 renal
  TGI: > 100 µM
EKVX NSCLC
  TGI: > 100 µM
SK-MEL-2 melanoma
  TGI: 70.9 µM
NCI/ADR-RES ovarian
  TGI: > 100 µM
A549 NSCLC
  TGI: > 100 µM
OVCAR-5 ovarian
  TGI: > 100 µM
MALME-3M melanoma
  TGI: > 100 µM
786-0 renal
  TGI: > 100 µM
HOP-62 NSCLC
  TGI: > 100 µM
NCI-H460 lung
  TGI: > 100 µM
SF-539 CNS
  TGI: > 100 µM
T-47D breast
  TGI: > 100 µM
CCRF-CEM leukemia
  TGI: > 100 µM
UACC-62 melanoma
  TGI: > 100 µM
SNB-19 CNS
  TGI: > 100 µM
MDA-N
  TGI: 62.6 µM
U251 CNS
  TGI: > 100 µM
HS 578T breast
  TGI: 84.5 µM
SW-620 colon
  TGI: > 100 µM
OVCAR-8 ovarian
  TGI: > 100 µM
SK-MEL-28 melanoma
  TGI: > 100 µM
MOLT-4 leukemia
  TGI: > 100 µM
NCI-H522 lung
  TGI: > 100 µM
TK-10 renal
  TGI: > 100 µM
NCI-H23 lung
  TGI: 74 µM
OVCAR-4 ovarian
  TGI: > 100 µM
PC-3 prostate
  TGI: > 100 µM
COLO 205 colon
  TGI: > 100 µM
HCC-2998 colon
  TGI: > 100 µM
UO-31 renal
  TGI: 85.9 µM
SK-OV-3 ovarian
  TGI: > 100 µM
RXF 393 renal
  TGI: 43.4 µM
DU-145 prostate
  TGI: > 100 µM
SR leukemia
  TGI: > 100 µM
BT-549 breast
  TGI: 79.2 µM
HL-60(TB) leukemia
  TGI: 71.9 µM
SK-MEL-5 melanoma
  TGI: 50.5 µM
HT29 colon
  TGI: > 100 µM
HCT-15 colon
  TGI: > 100 µM
HCT-116 colon
  TGI: > 100 µM
MCF7 breast
  TGI: 67.5 µM
NCI-H226 lung
  TGI: 74.9 µM
SNB-75 CNS
  TGI: 59.4 µM
LOX IMVI melanoma
  TGI: > 100 µM
IGROV1 ovarian
  TGI: > 100 µM
ACHN renal
  TGI: > 100 µM
MDA-MB-231 breast
  TGI: > 100 µM
SN12C renal
  TGI: > 100 µM
UACC-257 melanoma
  TGI: > 100 µM
SF-268 CNS
  TGI: > 100 µM

## [N-]=[N+]=NC1=C(C(=O)c2ccccc2)C(=O)c2cccc3cccc1c23
K-562 leukemia
  TGI: > 100 µM
M14 melanoma
  TGI: > 100 µM
SF-295 CNS
  TGI: > 100 µM
KM12 colon
  TGI: > 100 µM
CAKI-1 renal
  TGI: > 100 µM
EKVX NSCLC
  TGI: 89.2 µM
SK-MEL-2 melanoma
  TGI: 69.6 µM
NCI/ADR-RES ovarian
  TGI: > 100 µM
A549 NSCLC
  TGI: > 100 µM
OVCAR-5 ovarian
  TGI: > 100 µM
MALME-3M melanoma
  TGI: > 100 µM
786-0 renal
  TGI: > 100 µM
HOP-62 NSCLC
  TGI: 62 µM
SF-539 CNS
  TGI: > 100 µM
T-47D breast
  TGI: > 100 µM
CCRF-CEM leukemia
  TGI: > 100 µM
UACC-62 melanoma
  TGI: > 100 µM
SNB-19 CNS
  TGI: > 100 µM
MDA-N
  TGI: > 100 µM
U251 CNS
  TGI: > 100 µM
HS 578T breast
  TGI: 61.4 µM
OVCAR-3 ovarian
  TGI: > 100 µM
SW-620 colon
  TGI: > 100 µM
OVCAR-8 ovarian
  TGI: > 100 µM
SK-MEL-28 melanoma
  TGI: > 100 µM
MOLT-4 leukemia
  TGI: > 100 µM
MDA-MB-435
  TGI: > 100 µM
NCI-H522 lung
  TGI: 81.5 µM
TK-10 renal
  TGI: > 100 µM
NCI-H23 lung
  TGI: > 100 µM
OVCAR-4 ovarian
  TGI: > 100 µM
RPMI-8226 leukemia
  TGI: > 100 µM
PC-3 prostate
  TGI: > 100 µM
COLO 205 colon
  TGI: > 100 µM
UO-31 renal
  TGI: > 100 µM
SK-OV-3 ovarian
  TGI: > 100 µM
RXF 393 renal
  TGI: 71 µM
HOP-92 NSCLC
  TGI: > 100 µM
SR leukemia
  TGI: 77.6 µM
BT-549 breast
  TGI: > 100 µM
SK-MEL-5 melanoma
  TGI: > 100 µM
HT29 colon
  TGI: > 100 µM
HCT-116 colon
  TGI: > 100 µM
MCF7 breast
  TGI: > 100 µM
NCI-H226 lung
  TGI: > 100 µM
SNB-75 CNS
  TGI: 33.4 µM
IGROV1 ovarian
  TGI: 88.5 µM
ACHN renal
  TGI: > 100 µM
MDA-MB-231 breast
  TGI: 87.2 µM
SN12C renal
  TGI: > 100 µM
UACC-257 melanoma
  TGI: > 100 µM
SF-268 CNS
  TGI: 36.2 µM

## COc1oc(C(=O)NC2CCCCC2)c(-c2ccc(Cl)cc2)c1S(=O)(=O)c1ccccc1
K-562 leukemia
  TGI: > 52.4 µM
M14 melanoma
  TGI: > 100 µM
SF-295 CNS
  TGI: > 62 µM
KM12 colon
  TGI: 25.2 µM
CAKI-1 renal
  TGI: 10.7 µM
EKVX NSCLC
  TGI: > 30.9 µM
A498 renal
  TGI: 4.08 µM
SK-MEL-2 melanoma
  TGI: 39 µM
NCI/ADR-RES ovarian
  TGI: 8.42 µM
A549 NSCLC
  TGI: > 100 µM
OVCAR-5 ovarian
  TGI: > 100 µM
MALME-3M melanoma
  TGI: > 45.9 µM
786-0 renal
  TGI: 3.59 µM
HOP-62 NSCLC
  TGI: 22 µM
NCI-H460 lung
  TGI: > 36.1 µM
SF-539 CNS
  TGI: 14.4 µM
T-47D breast
  TGI: > 100 µM
CCRF-CEM leukemia
  TGI: 4.66 µM
UACC-62 melanoma
  TGI: 72.2 µM
SNB-19 CNS
  TGI: > 100 µM
MDA-N
  TGI: > 100 µM
U251 CNS
  TGI: 7.61 µM
HS 578T breast
  TGI: 68.6 µM
OVCAR-3 ovarian
  TGI: 3.59 µM
SW-620 colon
  TGI: > 100 µM
OVCAR-8 ovarian
  TGI: > 19.8 µM
SK-MEL-28 melanoma
  TGI: > 100 µM
MOLT-4 leukemia
  TGI: > 75.2 µM
MDA-MB-435
  TGI: 28.9 µM
NCI-H522 lung
  TGI: 2.94 µM
TK-10 renal
  TGI: > 89.1 µM
NCI-H23 lung
  TGI: > 25.5 µM
OVCAR-4 ovarian
  TGI: 3.51 µM
RPMI-8226 leukemia
  TGI: 5.59 µM
PC-3 prostate
  TGI: > 41.3 µM
COLO 205 colon
  TGI: 44.9 µM
HCC-2998 colon
  TGI: > 100 µM
UO-31 renal
  TGI: 3.22 µM
SK-OV-3 ovarian
  TGI: > 100 µM
RXF 393 renal
  TGI: 9.76 µM
DU-145 prostate
  TGI: > 74.4 µM
HOP-92 NSCLC
  TGI: 3.06 µM
SR leukemia
  TGI: > 25.3 µM
BT-549 breast
  TGI: > 22.1 µM
HL-60(TB) leukemia
  TGI: 6.4 µM
SK-MEL-5 melanoma
  TGI: > 100 µM
HT29 colon
  TGI: 5.42 µM
HCT-15 colon
  TGI: > 100 µM
HCT-116 colon
  TGI: > 100 µM
MCF7 breast
  TGI: > 100 µM
NCI-H226 lung
  TGI: > 100 µM
SNB-75 CNS
  TGI: > 100 µM
LOX IMVI melanoma
  TGI: 7.54 µM
IGROV1 ovarian
  TGI: 3.35 µM
ACHN renal
  TGI: > 100 µM
SN12C renal
  TGI: > 46.2 µM
SF-268 CNS
  TGI: 10.8 µM
